Data reported in patent publication US20230092490A1, “PHARMACEUTICAL COMPOSITIONS COMPRISING DASATINIB ANHYDROUS AND USES THEREOF” (ZENTIVA K.S., priority 2020, published 2023).
Read-outs that look alike come from different tables or passages of the source.

Experiments:
[1] = Preliminary bioequivalence study of DA1 vs. RP in eighty healthy subjects; type: in vivo, human; settings: total study population
Procedure: First, a preliminary bioequivalence study assessed in-vivo absorption of DA1 and RP. This bioequivalence study and its results are summarized in Example 2, below, and data are shown in FIG. 3 to FIG. 6 for four exemplary subjects A to D in that study.
Example 3, together with corresponding Table 4, presents additional results from the clinical study of Example 2, comparing the bioavailability of DA1 vs RP.
A preliminary bioequivalence study in eighty (80) healthy subjects was conducted to test the in-vivo absorption of RP and DA1.
Additional data from the bioequivalence study of Example 2, which compared the bioequivalence of DA1 against the reference product (“RP”) are summarised in Table 4 below.

[2] = Oral bioavailability and pharmacokinetics of dasatinib monohydrate (background); settings: human, in vivo, read-out: subjects exhibiting atypical pharmacokinetic profiles (reduced bioavailability, likely achlorhydria or hypochlorhydria)
[3] = pH 2.6; cited from earlier work
[4] = cited from earlier work
[5] = in vivo; cited from earlier work
[6] = administered 10 hours following the H2 antagonist famotidine
[7] = co-administration with aluminium hydroxide or magnesium hydroxide
[8] = single 100 mg dose 22 hours following a 4-day 40-mg omeprazole dose at steady state

SMILES | absorption across all subjects [1] | percentage of subjects with atypical pharmacokinetic profiles [2] [%] | thermodynamic (equilibrium) solubility [3] [mg/mL] | reduction of AUC [4, 6] [%] | reduction of Cmax [4, 6] [%] | reduction in Cmax [4, 7] [%] | reduction of the area under the curve (AUC) [4, 7] [%] | reduction of AUC [4, 8] [%] | reduction of Cmax [4, 8] [%] | time at which peak concentration is reached [5] [h]
Cc1nc(Nc2ncc(C(=O)Nc3c(C)cccc3Cl)s2)cc(N2CCN(CCO)CC2)n1 [Dasatinib anhydrous, N-(2-chloro-6-methylphenyl)-2-[[6-[4-(2-hydroxyethyl)-1-piperazinyl]-2-methyl-4-pyrimidinyl]amino]-5-thiazolecarboxamide] | absorbed in all subjects | – | – | – | – | – | – | – | – | –
Cc1nc(Nc2ncc(C(=O)Nc3c(C)cccc3Cl)s2)cc(N2CCN(CCO)CC2)n1 [dasatinib monohydrate, N-(2-chloro-6-methylphenyl)-2-[[6-[4-(2-hydroxyethyl)-1-piperazinyl]-2-methyl-4-pyrimidinyl]amino]-5-thiazolecarboxamide] | – | 3.5 to 7.5 | 18.4 | 61 | 63 | 58 | 55 | 43 | 42 | 1 to 2
